These results are taken from US20230159510A1, “NOVEL PRMT5 INHIBITORS” (AMGEN INC., priority 2020, published 2023).

Like-named read-outs stand apart in the source and are kept apart here.

For one assay, the system named is HCT116 MTAP null cells. The assay can be described thus: HCT116 proliferation assay, MTAP null cells (CellTiter-Glo, 6 days). It is filed as cell-based. The conditions noted are these: HCT116-MTAP null, 144 h, read-out: Protif_ HCT116-MTAP null IC50. Put shortly: (§1)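 Seed cells in RPMI 1640 supplemented with 10% FBS and incubate overnight at 37° C under 5% CO2. Treat with serially diluted compound (threefold steps, 8 or 9 points, highest 1 or 10 µM) or DMSO alone, then quantify viability by luminescence.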
In general terms: ATP-based viability assays read luminescence as a measure of living cells.

The target in another assay is PRMT5/MEP50 (Homo sapiens, UniProt O14744). The assay can be described thus: MTase-Glo methyl transferase assay, Method B (FL-Histone H2A, 1 µM MTA, 1 h pre-incubation). It counts as biochemical. Also noted: purchased Reaction Biology Corp RD-11-292. The conditions noted are these: read-out: PRMT5 MTase Glo Ki (nM, Meth. B). Put shortly:
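PRMT5/MEP50 (4 nM) was pre-incubated 1 h with compound, 5 µM SAM and 1 µM MTA, then started with 2.5 µM FL-Histone H2A in Tris pH 8.0 buffer. After 20 h at room temperature, SAH was detected by MTase-Glo luminescence, and IC50/KI were fitted from dose-response curves.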

The test system of another assay is HCT116 WT cells. As to the kind of experiment: HCT116 proliferation assay, WT cells (CellTiter-Glo, 6 days). It is filed as cell-based. The settings on record: read-out: Prolif_HCT116-WT IC50. In outline:
as §1

Chain of PRMT5/MEP50 (O14744 2-637 limits assumed): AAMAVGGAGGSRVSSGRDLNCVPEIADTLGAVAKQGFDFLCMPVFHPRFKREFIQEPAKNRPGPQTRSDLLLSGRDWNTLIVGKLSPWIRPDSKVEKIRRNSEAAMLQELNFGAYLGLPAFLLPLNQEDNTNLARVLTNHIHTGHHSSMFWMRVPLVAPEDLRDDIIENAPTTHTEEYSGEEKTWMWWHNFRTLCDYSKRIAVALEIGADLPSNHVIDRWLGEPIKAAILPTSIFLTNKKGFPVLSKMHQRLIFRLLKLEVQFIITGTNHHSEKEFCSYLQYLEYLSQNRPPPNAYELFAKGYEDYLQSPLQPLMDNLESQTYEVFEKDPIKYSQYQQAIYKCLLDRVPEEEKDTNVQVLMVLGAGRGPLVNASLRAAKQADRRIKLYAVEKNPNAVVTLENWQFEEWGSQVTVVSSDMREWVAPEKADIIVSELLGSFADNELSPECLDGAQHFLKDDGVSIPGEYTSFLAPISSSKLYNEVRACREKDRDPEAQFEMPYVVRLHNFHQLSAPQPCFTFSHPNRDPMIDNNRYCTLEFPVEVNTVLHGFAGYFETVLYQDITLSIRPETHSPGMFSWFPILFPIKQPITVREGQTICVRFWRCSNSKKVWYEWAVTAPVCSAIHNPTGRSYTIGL
Chain of PRMT5/MEP50 (Q9BQA1 2-342 partner limits assumed): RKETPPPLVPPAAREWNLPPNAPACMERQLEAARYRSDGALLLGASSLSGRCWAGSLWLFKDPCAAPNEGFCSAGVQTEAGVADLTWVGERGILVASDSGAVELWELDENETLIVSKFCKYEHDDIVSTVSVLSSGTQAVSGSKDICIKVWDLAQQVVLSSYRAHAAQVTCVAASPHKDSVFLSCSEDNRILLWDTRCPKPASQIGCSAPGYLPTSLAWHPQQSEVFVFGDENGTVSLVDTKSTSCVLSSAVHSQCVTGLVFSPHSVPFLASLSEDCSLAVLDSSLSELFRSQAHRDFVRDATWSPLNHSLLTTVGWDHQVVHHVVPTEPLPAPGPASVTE

As for `Cc1cc2cc(C(=O)N(Cc3ccc(CC(N)=O)cc3)Cc3ccc(C(F)(F)F)cn3)ccc2nc1N` [Example 680, 2-amino-N-[ [4-(2-amino-2-oxoethyl)phenyl]methyl]-3-methyl-N-[[5-(trifluoromethyl)-2-pyridyl]methyl] quinoline-6-carboxamide], the IC50 amounted to 157 nM in the assay with HCT116 MTAP null cells and 7700 nM in the assay with HCT116 WT cells (Homo sapiens, HCT-116, 144 h). Moreover, at PRMT5/MEP50, the Ki came to 1.76 nM.

Consider `Cc1cc2cc(C(=O)N(Cc3ccc(C(F)(F)F)cn3)CC3CCOCC3)ccc2nc1N` [Example 683, 2-amino-3-methyl-N-(tetrahydropyran-4-ylmethyl)-N-[[5-(trifluoromethyl)-2-pyridyl]methyl] quinoline-6-carboxamide], for which the IC50 in the assay on HCT116 MTAP null cells was 297 nM; with HCT116 WT cells (Homo sapiens, HCT-116, 144 h) it was over 1000 nM. Also, on PRMT5/MEP50, the Ki turned out to be 4.29 nM.

Take `Cc1cc2cc(C(=O)N(Cc3ccc(C(F)(F)F)cn3)Cc3ccnc4[nH]ccc34)ncc2nc1N` [Example 684, 2-amino-3-methyl-N-(1H-pyrrolo[2,3-b]pyridin-4-ylmethyl)-N-[[5-(trifluoromethyl)-2-pyridyl]methyl]-1,7-naphthyridine-6-carboxamide]: the IC50 is 114 nM in the assay with HCT116 MTAP null cells and over 1000 nM in the assay on HCT116 WT cells (Homo sapiens, HCT-116, 144 h). On PRMT5/MEP50, the Ki is 2.29 nM.

On to `Cc1cc2cc(C(=O)N(Cc3ccc(C(F)(F)F)cn3)CC(C)C#N)ccc2nc1N` (stereo not drawn) [Example 694, 2-amino-N-(2-cyanopropyl)-3-methyl-N-[[5-(trifluoromethyl)-2-pyridyl]methyl] quinoline-6-carboxamide], for which the IC50 came out at 224 nM in the assay on HCT116 MTAP null cells and 8600 nM in the assay on HCT116 WT cells (Homo sapiens, HCT-116, 144 h). Further, the Ki at PRMT5/MEP50 is 5.62 nM.

Turning to `Cc1cc2cc(C(=O)N(Cc3ccc(C(F)(F)F)cn3)C3CCCC3C#N)ccc2nc1N` (stereo not drawn) [Example 699, 2-amino-N-(2-cyanocyclopentyl)-3-methyl-N-[[5-(trifluoromethyl)-2-pyridyl]methyl] quinoline-6-carboxamide], the IC50 with HCT116 MTAP null cells is 50 nM; with HCT116 WT cells (Homo sapiens, HCT-116, 144 h), over 1000 nM. Moreover, the Ki at PRMT5/MEP50 stood at 3.86 nM.

On to `Cc1cc2cc(C(=O)N(Cc3ccc(C(F)(F)F)cn3)C3CCCC3C#N)c(F)cc2nc1N` (stereo not drawn) [Example 702, 2-amino-N-(2-cyanocyclopentyl)-7-fluoro-3-methyl-N-[[5-(trifluoromethyl)-2-pyridyl]methyl] quinoline-6-carboxamide], for which the IC50 was 46 nM in the assay on HCT116 MTAP null cells and 560 nM in the assay on HCT116 WT cells (Homo sapiens, HCT-116, 144 h). Moreover, on PRMT5/MEP50, the Ki was 5.12 nM.

For the molecule `Cc1cc2cc(C(=O)N(Cc3ccc(C#N)cn3)C3CCCC3C#N)c(F)cc2nc1N` (stereo not drawn) [Example 703, 2-amino-N-(2-cyanocyclopentyl)-N-[(5-cyano-2-pyridyl)methyl] -7-fluoro-3-methyl-quinoline-6-carboxamide], the IC50 in the assay on HCT116 MTAP null cells turned out to be 222 nM; in the assay on HCT116 WT cells (Homo sapiens, HCT-116, 144 h) it was 2300 nM. Besides, the Ki at PRMT5/MEP50 turned out to be 5.62 nM.

On to `CO[C@@H]1COCC[C@H]1N(Cc1ccc(C(F)(F)F)cn1)C(=O)c1ccc2nc(N)c(C)cc2c1` [Example 704, 2-amino-N-[(3 S,4R)-3-methoxytetrahydropyran-4-yl]-3-methyl-N-[[5-(trifluoromethyl)-2-pyridyl]methyl] quinoline-6-carboxamide], for which the figures for the IC50 with HCT116 MTAP null cells and with HCT116 WT cells were 80 nM and over 1000 nM, respectively. The Ki at PRMT5/MEP50 amounted to 25.1 nM.

Consider `Cc1cc2cc(C(=O)N(Cc3ccc(C(F)(F)F)cn3)C3CC3C3CC3)ccc2nc1N` (stereo not drawn) [Example 705, 2-amino-N-(2-cyclopropylcyclopropyl)-3-methyl-N-[[5-(trifluoromethyl)-2-pyridyl]methyl] quinoline-6-carboxamide], for which the IC50 in the assay on HCT116 MTAP null cells is 760 nM; in the assay with HCT116 WT cells (Homo sapiens, HCT-116, 144 h), over 1000 nM. In addition, at PRMT5/MEP50, the Ki was found to be 9.63 nM.

Regarding `Cc1csc(CN(Cc2ccc(C(F)(F)F)cn2)C(=O)c2ccc3nc(N)c(C)cc3c2)n1` [Example 708, 2-amino-3-methyl-N-[(4-methylthiazol-2-yl)methyl]-N-[[5-(trifluoromethyl)-2-pyridyl]methyl]quinoline-6-carboxamide], the IC50 in the assay on HCT116 MTAP null cells is 155 nM; in the assay with HCT116 WT cells (Homo sapiens, HCT-116, 144 h), over 1000 nM. Moreover, the Ki at PRMT5/MEP50 stood at 2.79 nM.

As for `Cc1cc(N)nc2ccc(C(=O)N(Cc3ccc(C(F)(F)F)cn3)Cc3ccn(C)n3)cc12` [Example 709, 2-amino-4-methyl-N-[(1-methylpyrazol-3-yl)methyl]-N-[[5-(trifluoromethyl)-2-pyridyl]methyl] quinoline-6-carboxamide], the IC50 with HCT116 MTAP null cells was found to be 334 nM; in the assay with HCT116 WT cells (Homo sapiens, HCT-116, 144 h), 1430 nM. Besides, on PRMT5/MEP50, the Ki stood at 2.97 nM.

Regarding `Cc1cc(N)nc2ccc(C(=O)N(Cc3ccc(C(F)(F)F)cn3)Cc3ncn(C)n3)cc12` [Example 710, 2-amino-4-methyl-N-[(1-methyl-1,2,4-triazol-3-yl)methyl]-N-[[5-(trifluoromethyl)-2-pyridyl]methyl] quinoline-6-carboxamide], the IC50 in the assay on HCT116 MTAP null cells stood at 177 nM; with HCT116 WT cells (Homo sapiens, HCT-116, 144 h) it was 1140 nM. Moreover, the Ki on PRMT5/MEP50 is 4.13 nM.

Usually IC50 stands for the point on the concentration scale where inhibition reaches its midpoint. Broadly, the Ki is a measure of affinity in units of concentration, obtained from inhibition or displacement.
